In ChEMBL document CHEMBL1152778, “Design, synthesis, and biological evaluation of (2R,alphaS)-3,4-dihydro-2-[3-(1,1,2,2-tetrafluoroethoxy)phenyl]-5-[3-(trifluoromethoxy)-phenyl]-alpha-(trifluoromethyl)-1(2H)-quinolineethanol as potent and orally active cholesteryl ester transfer protein inhibitor” (J Med Chem, 2009):

Molecular target: T1, Cholesteryl ester transfer protein (Homo sapiens, UniProt P11597)
T1 sequence (P11597 whole entry): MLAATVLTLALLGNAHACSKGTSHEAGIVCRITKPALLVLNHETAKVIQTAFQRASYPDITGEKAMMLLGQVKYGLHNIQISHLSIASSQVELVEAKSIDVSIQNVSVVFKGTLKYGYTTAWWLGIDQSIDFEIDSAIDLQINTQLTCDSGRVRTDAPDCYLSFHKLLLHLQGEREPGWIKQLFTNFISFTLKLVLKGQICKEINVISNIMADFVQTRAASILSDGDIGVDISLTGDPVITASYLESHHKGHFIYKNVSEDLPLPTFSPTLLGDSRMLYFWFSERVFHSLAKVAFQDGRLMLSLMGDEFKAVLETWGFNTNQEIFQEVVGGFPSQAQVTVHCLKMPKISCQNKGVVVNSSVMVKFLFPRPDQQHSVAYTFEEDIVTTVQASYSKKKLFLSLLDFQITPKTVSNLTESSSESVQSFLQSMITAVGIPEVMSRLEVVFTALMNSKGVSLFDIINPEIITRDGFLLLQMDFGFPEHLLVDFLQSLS
Assay: Inhibition of CETP-mediated transfer of [3H]cholesteryl ester from HDL donar particles to LDL acceptor particles

Structure (SMILES): OC(CN1c2cccc(-c3cccc(OC(F)(F)F)c3)c2CCC1c1cccc(OC(F)(F)C(F)F)c1)C(F)(F)F (racemic)
- IC50: 0.045 µM
